From patent US11040970B2, “VMAT2 inhibitor compounds and compositions thereof” (Neurocrine Biosciences, Inc., priority 2017, dated 2021)

Molecular target: VMAT2 (Homo sapiens (Human), UniProt Q05940)
Assay: VMAT2 radioligand binding assay: competition against 3H-dihydrotetrabenezine on human platelet homogenate (modified procedure)
Conditions: 10 nM 3H-dihydrotetrabenezine, 25° C., 90 minutes
Procedure: Examples of techniques for determining the capability of a compound to inhibit VMAT2 are provided below. The procedure is adapted from that described previously (see, e.g., Near, (1986), Mol. Pharmacol. 30: 252-57; Teng, et al., J. Neurochem. 71, 258-65, 1998). Homogenates from human platelets or Sprague-Dawley rat forebrain were prepared by homogenization and then washed by centrifugation as described previously (see, e.g., Hoare et al., (2003) Peptides 24:1881-97). […] Following incubation at 25° C. for two hours, bound radioligand was collected by rapid filtration onto GF/B glass fiber filters using a Unifilter-96 Harvester (PerkinElmer). Filter plates were pre-treated for 10 minutes with 0.1% polyethylenimine, and following harvesting the filter plates were washed with 800 μl VMAT2 binding buffer. Bound radioligand was quantified by scintillation counting using a Topcount NXT (PerkinElmer).
Following incubation at 25° C. for 90 minutes, bound radioligand was collected by rapid filtration onto GF/B glass fiber filters using a Unifilter-96 Harvester (PerkinElmer). Filter plates were pre-treated with 0.1% polyethylenimine and allowed to dry overnight, and following harvesting the filter plates were washed with 800 μl VMAT2 binding buffer. Bound radioligand was quantified by scintillation counting using a Topcount NXT (PerkinElmer).

Sequence of VMAT2 (Q05940 whole entry): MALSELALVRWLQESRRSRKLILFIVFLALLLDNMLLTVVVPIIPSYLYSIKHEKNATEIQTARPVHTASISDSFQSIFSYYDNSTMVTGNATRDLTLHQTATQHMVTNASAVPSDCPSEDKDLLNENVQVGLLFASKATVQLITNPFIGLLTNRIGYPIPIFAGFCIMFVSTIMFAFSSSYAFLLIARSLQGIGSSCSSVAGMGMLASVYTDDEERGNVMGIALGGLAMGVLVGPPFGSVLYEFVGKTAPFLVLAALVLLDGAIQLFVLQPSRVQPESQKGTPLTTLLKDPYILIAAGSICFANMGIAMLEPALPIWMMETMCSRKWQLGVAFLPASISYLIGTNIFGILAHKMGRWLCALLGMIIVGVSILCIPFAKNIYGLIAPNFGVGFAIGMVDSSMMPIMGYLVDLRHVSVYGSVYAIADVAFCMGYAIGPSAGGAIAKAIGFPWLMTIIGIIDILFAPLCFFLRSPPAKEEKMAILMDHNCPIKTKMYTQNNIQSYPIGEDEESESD

Row | Compound | Ki [nM]
1 | COc1cc2c(cc1OC)[C@H]1CN(C)[C@H](CC(C)(C)C)CN1CC2 [Compound 11-2, (3R,11bS)-3-(2,2-dimethylpropyl)-9,10-dimethoxy-2-methyl-1H,2H,3H,4H,6H,7H,11bH-piperazino[2,1-a]isoquinoline] | < 10
2 | COc1cc2c(cc1OCCF)CCN1C[C@@H](CC(C)C)N(C)C[C@@H]21 [Compound 6-3, (3R,11bR)-9-(2-fluoroethoxy)-10-methoxy-2-methyl-3-(2-methylpropyl)-1H,2H,3H,4H,6H,7H,11bH-piperazino[2,1-a]isoquinoline] | > 500
3 | C=CCOc1cc2c(cc1OC)[C@H]1CN(C)[C@H](CC(C)C)CN1CC2 [Compound 5-8, (3R,11bS)-10-methoxy-2-methyl-3-(2-methylpropyl)-9-(prop-2-en-1-yloxy)-1H,2H,3H,4H,6H,7H,11bH-piperazino[2,1-a]isoquinoline] | < 10
4 | COc1cc2c(cc1OCCCF)CCN1C[C@@H](CC3CCC3)N(C)C[C@@H]21 [Compound 9-1, (3R,11bR)-3-(cyclobutylmethyl)-9-(3-fluoropropoxy)-10-methoxy-2-methyl-1H,2H,3H,4H,6H,7H,11bH-piperazino[2,1-a]isoquinoline] | > 500
5 | CCN1C[C@H]2c3cc(OC)c(OC)cc3CCN2C[C@H]1CC(C)C [Compound 3-1, (3R,11bR)-2-ethyl-9,10-dimethoxy-3-(2-methylpropyl)-1H,2H,3H,4H,6H,7H,11bH-piperazino[2,1-a]isoquinoline] | > 500
6 | COc1cc2c(cc1OCCC(F)(F)F)CCN1C[C@@H](CC(C)C)N(C)C[C@H]21 [Compound 5-19, (3R,11bS)-10-methoxy-2-methyl-3-(2-methylpropyl)-9-(3,3,3-trifluoropropoxy)-1H,2H,3H,4H,6H,7H,11bH-piperazino[2,1-a]isoquinoline] | < 10
7 | COc1cc2c(cc1OCC1CCC1)CCN1C[C@@H](CC(C)(C)C)N(C)C[C@H]21 [Compound 11-8, (3R,11bS)-9-(cyclobutylmethoxy)-3-(2,2-dimethylpropyl)-10-methoxy-2-methyl-1H,2H,3H,4H,6H,7H,11bH-piperazino[2,1-a]isoquinoline] | < 10
8 | COc1cc2c(cc1OC)[C@H]1CN(C)[C@H](CC(C)C)CN1CC2 [Compound 2-2, (3R,11bS)-9,10-dimethoxy-2-methyl-3-(2-methylpropyl)-1H,2H,3H,4H,6H,7H,11bH-piperazino[2,1-a]isoquinoline] | 10 to 500
9 | COc1cc2c(cc1OCCF)CCN1C[C@@H](CC3CCC3)N(C)C[C@H]21 [Compound 8-4, (3R,11bS)-3-(cyclobutylmethyl)-9-(2-fluoroethoxy)-10-methoxy-2-methyl-1H,2H,3H,4H,6H,7H,11bH-piperazino[2,1-a]isoquinoline] | 10 to 500
10 | COc1cc2c(cc1OC)[C@H]1CN(CC(C)C)[C@H](CC(C)C)CN1CC2 [Compound 2-3, (3R,11bS)-9,10-dimethoxy-2,3-bis(2-methylpropyl)-1H,2H,3H,4H,6H,7H,11bH-piperazino[2,1-a]isoquinoline] | > 500
11 | COc1cc2c(cc1OCCCF)CCN1C[C@@H](CC(C)C)N(C)C[C@H]21 [Compound 5-3, (3R,11bS)-9-(3-fluoropropoxy)-10-methoxy-2-methyl-3-(2-methylpropyl)-1H,2H,3H,4H,6H,7H,11bH-piperazino[2,1-a]isoquinoline] | 10 to 500
12 | COc1cc2c(cc1OCCF)CCN1C[C@@H](CC(C)(C)C)N(C)C[C@H]21 [Compound 11-6, (3R,11bS)-3-(2,2-dimethylpropyl)-9-(2-fluoroethoxy)-10-methoxy-2-methyl-1H,2H,3H,4H,6H,7H,11bH-piperazino[2,1-a]isoquinoline] | < 10
13 | COc1cc2c(cc1OCC(F)(F)F)CCN1C[C@@H](CC3CCC3)N(C)C[C@H]21 [Compound 8-2, (3R,11bS)-3-(cyclobutylmethyl)-10-methoxy-2-methyl-9-(2,2,2-trifluoroethoxy)-1H,2H,3H,4H,6H,7H,11bH-piperazino[2,1-a]isoquinoline] | < 10
14 | COc1cc2c(cc1OCCCF)CCN1C[C@@H](CC(C)(C)C)N(C)C[C@H]21 [Compound 11-1, (3R,11bS)-3-(2,2-dimethylpropyl)-9-(3-fluoropropoxy)-10-methoxy-2-methyl-1H,2H,3H,4H,6H,7H,11bH-piperazino[2,1-a]isoquinoline] | < 10
15 | COc1cc2c(cc1OC(C)C)CCN1C[C@@H](CC(C)C)N(C)C[C@@H]21 [Compound 6-1, (3R,11bR)-10-methoxy-2-methyl-3-(2-methylpropyl)-9-(propan-2-yloxy)-1H,2H,3H,4H,6H,7H,11bH-piperazino[2,1-a]isoquinoline] | > 500
16 | CCOc1cc2c(cc1OC)[C@H]1CN(C)[C@H](CC(C)(C)C)CN1CC2 [Compound 11-12, (3R,11bS)-3-(2,2-dimethylpropyl)-9-ethoxy-10-methoxy-2-methyl-1H,2H,3H,4H,6H,7H,11bH-piperazino[2,1-a]isoquinoline] | < 10
17 | COCCOc1cc2c(cc1OC)[C@H]1CN(C)[C@H](CC(C)C)CN1CC2 [Compound 5-10, (3R,11bS)-10-methoxy-9-(2-methoxyethoxy)-2-methyl-3-(2-methylpropyl)-1H,2H,3H,4H,6H,7H,11bH-piperazino[2,1-a]isoquinoline] | 10 to 500
18 | COc1cc2c(cc1OCC(F)(F)F)CCN1C[C@@H](CC(C)C)N(C)C[C@H]21 [Compound 5-17, (3R,11bS)-10-methoxy-2-methyl-3-(2-methylpropyl)-9-(2,2,2-trifluoroethoxy)-1H,2H,3H,4H,6H,7H,11bH-piperazino[2,1-a]isoquinoline] | < 10
19 | COc1cc2c(cc1OC1CC1)CCN1C[C@@H](CC(C)C)N(C)C[C@@H]21 [Compound 6-4, (3R,11bR)-9-cyclopropoxy-10-methoxy-2-methyl-3-(2-methylpropyl)-1H,2H,3H,4H,6H,7H,11bH-piperazino[2,1-a]isoquinoline] | > 500
20 | COc1cc2c(cc1OCC1CC1(F)F)CCN1C[C@@H](CC(C)(C)C)N(C)C[C@H]21 (stereo partly drawn) [Compound 11-4, (3R,11bS)-9-[(2,2-difluorocyclopropyl)methoxy]-3-(2,2-dimethylpropyl)-10-methoxy-2-methyl-1H,2H,3H,4H,6H,7H,11bH-piperazino[2,1-a]isoquinoline] | < 10
21 | COc1cc2c(cc1OCCCCF)CCN1C[C@@H](CC3CCC3)N(C)C[C@H]21 [Compound 8-8, (3R,11bS)-3-(cyclobutylmethyl)-9-(4-fluorobutoxy)-10-methoxy-2-methyl-1H,2H,3H,4H,6H,7H,11bH-piperazino[2,1-a]isoquinoline] | 10 to 500
22 | COc1cc2c(cc1OCCCC(F)(F)F)CCN1C[C@@H](CC(C)C)N(C)C[C@H]21 [Compound 5-13, (3R,11bS)-10-methoxy-2-methyl-3-(2-methylpropyl)-9-(4,4,4-trifluorobutoxy)-1H,2H,3H,4H,6H,7H,11bH-piperazino[2,1-a]isoquinoline] | < 10
23 | COc1cc2c(cc1OCC(F)(F)F)CCN1C[C@@H](CC(C)(C)C)N(C)C[C@H]21 [Compound 11-3, (3R,11bS)-3-(2,2-dimethylpropyl)-10-methoxy-2-methyl-9-(2,2,2-trifluoroethoxy)-1H,2H,3H,4H,6H,7H,11bH-piperazino[2,1-a]isoquinoline] | < 10

Test system: vesicular monoamine transporter-2 (VMAT2)
Assay: not given
Conditions: read-out: IC50 catecholamine uptake by VMAT2; cited from earlier work

Row | Compound | IC50 [nM]
24 | COc1cc2c(cc1OC)C1CC(=O)C(CC(C)C)CN1CC2 (stereo not drawn) [Tetrabenazine, 3-Isobutyl-9,10-dimethoxy-1,3,4,6,7,11b-hexahydro-2H-pyrido[2,1-a]-isoquinolin-2-one] | […]
